From ChEMBL document CHEMBL1201862, “PubChem BioAssay data set” (2004)
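Grown in 96-well plates, cells were treated for 48 hours with each compound at five concentrations. Insufficient inhibition: endpoint recorded as highest concentration tested. GI50: concentration for 50% inhibition of growth.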 Activity calls are given as the source filed them. Cut-off read from the data, not from the text of the source: active = GI50 up to about 1.1 µM and inactive = higher.

Tests used:
Experiment in all cases: NCI tumour cell line growth inhibition, 48 h
CAKI-1 = tested on: CAKI-1
DLD-1 = tested on: DLD-1
786-0 = tested on: 786-0
MOLT-4 = tested on: MOLT-4
SNB-78 = tested on: SNB-78
A498 = tested on: A498
HOP-92 = tested on: HOP-92
SR = tested on: SR
HT-29 = tested on: HT-29
RPMI-8226 = tested on: RPMI-8226
RXF 393 = tested on: RXF 393
OVCAR-5 = tested on: OVCAR-5
SK-MEL-5 = tested on: SK-MEL-5
OVCAR-3 = tested on: OVCAR-3

C/N=c1\ss/c(=N\C(=S)N(C)C)n1C
GI50 (CAKI-1): > 100 µM (inactive)
GI50 (DLD-1): > 100 µM (inactive)
GI50 (786-0): > 100 µM (inactive)
GI50 (MOLT-4): > 100 µM (inactive)
GI50 (SNB-78): > 100 µM (inactive)
GI50 (A498): > 100 µM (inactive)
GI50 (HOP-92): > 100 µM (inactive)
GI50 (SR): > 100 µM (inactive)
GI50 (HT-29): > 100 µM (inactive)
GI50 (RPMI-8226): > 100 µM (inactive)
GI50 (RXF 393): > 100 µM (inactive)
GI50 (OVCAR-5): > 100 µM (inactive)
GI50 (SK-MEL-5): > 100 µM (inactive)

COC1=CCC=C(C[C@@H]2NCCc3cc(OC)c(OC)cc32)C1
GI50 (CAKI-1): > 100 µM (inactive)
GI50 (DLD-1): > 100 µM (inactive)
GI50 (786-0): > 100 µM (inactive)
GI50 (MOLT-4): > 100 µM (inactive)
GI50 (SNB-78): > 100 µM (inactive)
GI50 (A498): > 100 µM (inactive)
GI50 (HOP-92): 41.5 µM (inactive)
GI50 (OVCAR-3): > 100 µM (inactive)
GI50 (HT-29): > 100 µM (inactive)
GI50 (RPMI-8226): > 100 µM (inactive)
GI50 (RXF 393): > 100 µM (inactive)
GI50 (OVCAR-5): > 100 µM (inactive)
GI50 (SK-MEL-5): > 100 µM (inactive)

CCOC(=O)C(Cc1c[nH]c2cc([N+](=O)[O-])ccc12)NS(=O)(=O)c1ccc2ccccc2c1 (configuration not stated)
GI50 (DLD-1): 23.7 µM (inactive)
GI50 (786-0): 26.5 µM (inactive)
GI50 (MOLT-4): 26 µM (inactive)
GI50 (SNB-78): 20.7 µM (inactive)
GI50 (A498): 29.2 µM (inactive)
GI50 (HOP-92): 19.9 µM (inactive)
GI50 (OVCAR-3): 16.7 µM (inactive)
GI50 (SR): 17.5 µM (inactive)
GI50 (HT-29): 17.2 µM (inactive)
GI50 (RPMI-8226): 22 µM (inactive)
GI50 (RXF 393): 14.7 µM (inactive)

CCOc1ccc(NC2=NC(=O)C(CC(=O)Nc3ccccc3[N+](=O)[O-])S2)cc1 (configuration not stated)
GI50 (CAKI-1): > 100 µM (inactive)
GI50 (DLD-1): > 100 µM (inactive)
GI50 (786-0): > 100 µM (inactive)
GI50 (MOLT-4): > 100 µM (inactive)
GI50 (SNB-78): > 100 µM (inactive)
GI50 (A498): > 100 µM (inactive)
GI50 (HOP-92): > 100 µM (inactive)
GI50 (OVCAR-3): > 100 µM (inactive)
GI50 (SR): > 100 µM (inactive)
GI50 (HT-29): > 100 µM (inactive)
GI50 (RPMI-8226): > 100 µM (inactive)
GI50 (RXF 393): > 100 µM (inactive)
GI50 (OVCAR-5): > 100 µM (inactive)
GI50 (SK-MEL-5): > 100 µM (inactive)

Cc1csc(=S)n1OC(=O)NC1CCCCC1
GI50 (CAKI-1): > 100 µM (inactive)
GI50 (DLD-1): 55.5 µM (inactive)
GI50 (786-0): 19 µM (inactive)
GI50 (MOLT-4): 9.77 µM (inactive)
GI50 (SNB-78): 97.7 µM (inactive)
GI50 (A498): > 92.5 µM (inactive)
GI50 (HOP-92): 7.89 µM (inactive)
GI50 (OVCAR-3): > 63.8 µM (inactive)
GI50 (SR): 12.1 µM (inactive)
GI50 (HT-29): > 48.9 µM (inactive)
GI50 (RPMI-8226): 23.6 µM (inactive)
GI50 (RXF 393): > 100 µM (inactive)
GI50 (SK-MEL-5): > 51.4 µM (inactive)

Cn1cc(NC(=O)c2cc(NC(=O)CCCCCCCCC(=O)Nc3cc(C(=O)Nc4cc(C(=O)NCCC(N)N)n(C)c4)n(C)c3)cn2C)cc1C(=O)NCCC(=N)N
GI50 (CAKI-1): 22.5 µM (inactive)
GI50 (DLD-1): 25.5 µM (inactive)
GI50 (786-0): 21.9 µM (inactive)
GI50 (MOLT-4): 19.9 µM (inactive)
GI50 (SNB-78): 34.6 µM (inactive)
GI50 (HOP-92): 36.6 µM (inactive)
GI50 (OVCAR-3): 31 µM (inactive)
GI50 (HT-29): 18.8 µM (inactive)
GI50 (RPMI-8226): 5.35 µM (inactive)
GI50 (RXF 393): 21.2 µM (inactive)
GI50 (OVCAR-5): 21.4 µM (inactive)
GI50 (SK-MEL-5): 4.74 µM (inactive)

COc1cc2ccc3c4cc(OC)c(OC(C)C)cc4cnc3c2cc1OC
GI50 (CAKI-1): > 100 µM (inactive)
GI50 (DLD-1): > 100 µM (inactive)
GI50 (786-0): > 100 µM (inactive)
GI50 (MOLT-4): > 100 µM (inactive)
GI50 (SNB-78): > 100 µM (inactive)
GI50 (HOP-92): > 100 µM (inactive)
GI50 (OVCAR-3): > 100 µM (inactive)
GI50 (SR): > 100 µM (inactive)
GI50 (HT-29): > 100 µM (inactive)
GI50 (RPMI-8226): > 100 µM (inactive)
GI50 (RXF 393): > 100 µM (inactive)
GI50 (OVCAR-5): > 100 µM (inactive)
GI50 (SK-MEL-5): > 100 µM (inactive)

Cc1cccc(Cl)c1NC(=O)c1cccc([N+](=O)[O-])c1O
GI50 (CAKI-1): 46.1 µM (inactive)
GI50 (DLD-1): 31.7 µM (inactive)
GI50 (786-0): 56 µM (inactive)
GI50 (MOLT-4): 29.2 µM (inactive)
GI50 (SNB-78): 71 µM (inactive)
GI50 (A498): 33 µM (inactive)
GI50 (HOP-92): 23 µM (inactive)
GI50 (OVCAR-3): 27.5 µM (inactive)
GI50 (HT-29): 41.8 µM (inactive)
GI50 (RPMI-8226): 21.2 µM (inactive)
GI50 (RXF 393): 16.7 µM (inactive)
GI50 (OVCAR-5): 23.9 µM (inactive)

Cc1cc(C)n(-c2ccnc3cc(Cl)ccc23)n1
GI50 (DLD-1): > 100 µM (inactive)
GI50 (786-0): > 100 µM (inactive)
GI50 (MOLT-4): > 100 µM (inactive)
GI50 (SNB-78): > 100 µM (inactive)
GI50 (A498): > 100 µM (inactive)
GI50 (HOP-92): > 100 µM (inactive)
GI50 (OVCAR-3): > 100 µM (inactive)
GI50 (SR): > 100 µM (inactive)
GI50 (HT-29): > 100 µM (inactive)
GI50 (RPMI-8226): > 100 µM (inactive)
GI50 (RXF 393): > 100 µM (inactive)
GI50 (OVCAR-5): > 100 µM (inactive)
GI50 (SK-MEL-5): > 100 µM (inactive)

COc1cc(C(C#N)NNC(=O)c2ccccc2O)ccc1O (configuration not stated)
GI50 (CAKI-1): 5.46 µM (inactive)
GI50 (DLD-1): 4.22 µM (inactive)
GI50 (786-0): 2.7 µM (inactive)
GI50 (MOLT-4): 6.15 µM (inactive)
GI50 (SNB-78): 3.2 µM (inactive)
GI50 (HOP-92): 2.98 µM (inactive)
GI50 (OVCAR-3): 3.44 µM (inactive)
GI50 (SR): > 100 µM (inactive)
GI50 (HT-29): 23.4 µM (inactive)
GI50 (RPMI-8226): 9.64 µM (inactive)
GI50 (RXF 393): 0.349 µM (active)
GI50 (OVCAR-5): 10.7 µM (inactive)
GI50 (SK-MEL-5): 9.95 µM (inactive)
